Experimental data: US12110286B2, “Benzimidazolone derived inhibitors of BCL6” (Cancer Research Technology Limited, priority 2017, dated 2024)
Where two headings read alike, the source gives them in different places.

Columns and labels:
SU-DHL-4 cells = test: 14-day cell proliferation assay (CellTiter Glo); format: cell-based; conditions: Homo sapiens, SU-DHL-4, 336 h; SU-DHL4 cells, 14 days
Procedure: 14-Day Cell Proliferation Assay
SU-DHL-4 cells were seeded in 96-well culture plates at a density of 2000 cells/well in RPMI-1640 medium (Sigma-Aldrich) supplemented with 10% FBS (Gibco). Compounds were initially dispensed into 96-well U-bottom plates using an Echo 550 acoustic dispenser (Labcyte Inc.), then diluted in RPMI-1640 medium and transferred onto the cells. Cells were treated with 8 compound concentrations in duplicate, ranging from 1 nM to 10 μM, in a final DMSO concentration of 0.1% and final volume of 100 μl. Cells were incubated with compound for 14 days, with medium changes at days 3, 7 and 10 carried out as follows: fresh 96-well cell culture plates were prepared containing 100 μl medium plus compound at the assay concentrations (white plates were used on day 10 to optimise luminescence measurement). Assay plates containing cells were vortexed to mix and cell density in one control well was counted using a Coulter Z2 cell counter (Beckman Coulter). The volume of medium containing 2000 cells in the control well was calculated and this volume of cells was transferred from every well of the assay plates to the corresponding well of the fresh plates containing compound. After 14 days, CellTiter Glo reagent (Promega) was added to the medium in each well of the assay plate at a ratio of 1:2, mixed on a plate shaker, then incubated at room temperature for 10 minutes. Luminescence was measured using an Envision plate reader (Perkin Elmer) and the relative luminescence at each compound concentration, compared to DMSO alone, was calculated. G150 were determined using a 4-parameter curve fit in Dotmatics (Bishops Stortford, UK).

[1] = target: Trx-6×His-BCL6 (human BCL6 BTB domain covering amino-acid sequence 5-129) (Homo sapiens (Human), UniProt P41182); test: HTRF in vitro assay (BCL6 / BCOR-AF633 peptide); format: binding; conditions: for IC50: read-out: HTRF pIC50 (converted)
Procedure: The % inhibition at each concentration was calculated by normalising FRET ratio to the appropriate high (DMSO with all reagents) and low (DMSO without BCL6) controls.

[2] = target: BCL6-NCOR2(SMRT) corepressor protein-protein interaction (Homo sapiens (Human), UniProt P41182); test: NanoBRET cell assay; format: cell-based; conditions: transfected HEK293T cells, 6 hr; for IC50: read-out: NanoBRET cell pIC50 (converted)
Procedure: A cellular nano-Bioluminescence Resonance Energy Transfer (nanoBRET) assay (Promega NanoBRET Nano-Glo Detection System, catalogue number N1662) was used to detect inhibition of the BCL6-NCOR2(SMRT) corepressor protein-protein interaction. DNA encoding full length BCL6 and NCOR2 were inserted into pFC32K.NanoLuc and pFC14K.HaloTag vectors (Promega) to produce C-terminal tagged fusion proteins BCL6-nanoLuc and NCOR2-HaloTag, respectively. HEK293T cells were plated (5×10^5) in T75 tissue culture flask and bulk transfected 48 hours later with Fugene 6 (Promega cat. #E2691) reagent and 18 μg total DNA plasmids encoding BCL6-nanoLuc as donor and NCOR2-HaloTag as acceptor, at a donor:acceptor DNA ratio of 1:25. At 24 hr post-transfection, HEK293T cells were collected and stored in liquid nitrogen in 90% FBS (PAN Biotech UK) and 10% DMSO. […] Frozen transfected HEK293T cells were thawed, centrifuged and freezing medium was replaced by phenol red-free OptiMEM+4% FBS (Life Technology). […] Cells were incubated for 6 hr at 37° C./5% C02 then NanoBRET furimazine substrate (Promega) was added to give a final concentration of 10 μM. After a short centrifugation the plates were read on an Envision (Perkin Elmer) plate reader equipped with a LUM/D600 Dual mirror, Lum 450/40 nm bandpass and D605 nm longpass filters, with a 0.2 sec reading to determine the BRET ratio. The % inhibition at each test concentration was calculated by normalising the BRET ratio to the appropriate high and low controls.

[3] = further generated data, 1 nM Trx-6×His-BCL6, 300 nM BCOR-AF633 peptide, 0.5 nM anti-6×His-Terbium cryptate
[4] = initially generated data, 10 nM Trx-6×His-BCL6, 300 nM BCOR-AF633 peptide, 1 nM anti-6×His-Terbium cryptate

| Structure (SMILES) | IC50 ([2]; further generated data) [nM] | HTRF pIC50 [1, 3] | further results |
| --- | --- | --- | --- |
| Cn1c(=O)n(CCC(C)(C)O)c2cc(Nc3nc(N4CCC(F)(F)C(CO)C4)ncc3Cl)ccc21 (stereo not drawn) [Example 35a, 5-((5-chloro-2-(4,4-difluoro-3-(hydroxymethyl)piperidin-1-yl)pyrimidin-4-yl)amino)-3-(3-hydroxy-3-methylbutyl)-1-methyl-1,3-dihydro-2H-benzo[d]imidazol-2-one] |  |  | GI50 (SU-DHL-4 cells): 1140 nM |
| Cn1c(=O)n(CCC(C)(C)O)c2cc(Nc3nc(-c4n[nH]c5ccccc45)ncc3Cl)ccc21 [Example 17a, 5-((5-chloro-2-(1H-indazol-3-yl)pyrimidin-4-yl)amino)-3-(3-hydroxy-3-methylbutyl)-1-methyl-1,3-dihydro-2H-benzo[d]imidazol-2-one] | 1150 |  | IC50 [1, 3]: 537 nM |
| Cn1c(=O)n(CCC(C)(C)O)c2cc(Nc3nc(-n4ccc(C(F)(F)F)n4)ncc3Cl)ccc21 [Example 15d] | 1290 | 6.41 |  |
| Cn1c(=O)n(CCC(C)(C)O)c2cc(Nc3nc(N4[C@@H]5CCC[C@H]4CC5)ncc3Cl)ccc21 [Example 35m, 5-((2-((1R,5S)-8-azabicyclo[3.2.1]octan-8-yl)-5-chloropyrimidin-4-yl)amino)-3-(3-hydroxy-3-methylbutyl)-1-methyl-1,3-dihydro-2H-benzo[d]imidazol-2-one] | 741 | 6.81 |  |
| CC(C)(O)CCn1c(=O)n(CCC(C)(C)O)c2cc(Nc3nc(N4CC(C)(C)OC(C)(C)C4)ncc3Cl)ccc21 [Example 35k, 5-((5-chloro-2-(2,2,6,6-tetramethylmorpholino)pyrimidin-4-yl)amino)-1,3-bis(3-hydroxy-3-methylbutyl)-1,3-dihydro-2H-benzo[d]imidazol-2-one] | 1480 | 6.56 |  |
| CC(C)(O)CCn1c(=O)n(CCC(C)(C)O)c2ncc(Nc3nc(N4CC(C)(C)OC(C)(C)C4)ncc3Cl)cc21 [Example 35q, 6-((5-chloro-2-(2,2,6,6-tetramethylmorpholino)pyrimidin-4-yl)amino)-1,3-bis(3-hydroxy-3-methylbutyl)-1,3-dihydro-2H-imidazo[4,5-b]pyridin-2-one] | 1700 | 6.63 |  |
| Cn1c(=O)n(CCC(C)(C)O)c2cc(Nc3nc(-n4ncc5ccccc54)ncc3Cl)ccc21 [Example 17b, 5-((5-chloro-2-(1H-indazol-1-yl)pyrimidin-4-yl)amino)-3-(3-hydroxy-3-methylbutyl)-1-methyl-1,3-dihydro-2H-benzo[d]imidazol-2-one] | 1910 | 6.21 |  |
| CCC(C)(O)CCn1c(=O)n(C)c2ccc(Nc3nc(N4CCC(C(=O)N(C)C)CC4)ncc3Cl)cc21 (stereo not drawn) [Example 15l] | 1320 | 6.63 |  |
| CNC(=O)c1cc(Nc2ccc3c(c2)n(CCC(C)(C)O)c(=O)n3C)c(C#N)c(Cl)n1 [Example 1a, 6-Chloro-5-cyano-4-[[3-(3-hydroxy-3-methyl-butyl)-1-methyl-2-oxo-benzimidazol-5-yl]amino]-N-methyl-pyridine-2-carboxamide] |  | 6.22 | HTRF pIC50 [1, 4]: 6.48; NanoBRET cell pIC50 ([2]; further generated data): 5.45; IC50 ([2]; initially generated data): 3550 nM |
| Cc1cc(C)n(-c2ncc(Cl)c(Nc3ccc4c(c3)n(CCC(C)(C)O)c(=O)n4C)n2)n1 [Example 15a, 5-[[5-Chloro-2-(3,5-dimethylpyrazol-1-yl)pyrimidin-4-yl]amino]-3-(3-hydroxy-3-methyl-butyl)-1-methyl-benzimidazol-2-one] | 1780 | 6.61 | HTRF pIC50 [1, 4]: 6.56; IC50 ([2]; initially generated data): 2040 nM |
| Cc1nn(-c2ncc(Cl)c(Nc3ccc4c(c3)n(CCC(C)(C)O)c(=O)n4C)n2)c(C)c1Cl [Example 15n] | 1820 | 6.35 |  |
| Cn1c(=O)n(CCC(C)(C)O)c2cc(Nc3nc(N4C5CC6CC(C5)CC4C6)ncc3Cl)ccc21 [Example 35t, 5-((2-((1r,3r,5r,7r)-2-azaadamantan-2-yl)-5-chloropyrimidin-4-yl)amino)-3-(3-hydroxy-3-methylbutyl)-1-methyl-1,3-dihydro-2H-benzo[d]imidazol-2-one] | 2340 | 6.46 |  |
| CCOC(=O)c1c(C)nn(-c2ncc(Cl)c(Nc3ccc4c(c3)n(CCC(C)(C)O)c(=O)n4C)n2)c1C [Example 15c] | 2040 | 6.22 |  |
| C[C@@H]1CN(c2ncc(Cl)c(Nc3ccc4c(c3)n(CCC(C)(C)O)c(=O)n4C)n2)C[C@H](C2CC2)O1 [Example 21a, 5-((5-chloro-2-((2S,6R)-2-cyclopropyl-6-methylmorpholino)pyrimidin-4-yl)amino)-3-(3-hydroxy-3-methylbutyl)-1-methyl-1,3-dihydro-2H-benzo[d]imidazol-2-one] | 1350 |  | IC50 [1, 3]: 100 nM |
| COCC1CCCN(c2ncc(Cl)c(Nc3ccc4c(c3)n(CCC(C)(C)O)c(=O)n4C)n2)C1 (stereo not drawn) [Example 35v, 5-((5-chloro-2-(3-(methoxymethyl)piperidin-1-yl)pyrimidin-4-yl)amino)-3-(3-hydroxy-3-methylbutyl)-1-methyl-1,3-dihydro-2H-benzo[d]imidazol-2-one] | 2340 | 6.70 |  |
| C[C@@H]1CN(c2ncc(Cl)c(Nc3ccc4c(c3)n(CCC(C)(C)O)c(=O)n4C)n2)C[C@@H](C2CC2)O1 [Example 21b, 5-((5-chloro-2-((2R,6R)-2-cyclopropyl-6-methylmorpholino)pyrimidin-4-yl)amino)-3-(3-hydroxy-3-methylbutyl)-1-methyl-1,3-dihydro-2H-benzo[d]imidazol-2-one] | 1380 | 7.01 |  |
| C[C@@H]1C[C@H](O)CN(c2ncc(Cl)c(Nc3ccc4c(c3)n(CCC(C)(C)O)c(=O)n4C)n2)C1 [Example 35x, 5-((5-chloro-2-((3S,5R)-3-hydroxy-5-methylpiperidin-1-yl)pyrimidin-4-yl)amino)-3-(3-hydroxy-3-methylbutyl)-1-methyl-1,3-dihydro-2H-benzo[d]imidazol-2-one] | 3160 | 7.01 |  |
| Cn1c(=O)n(CCC(C)(C)O)c2cc(Nc3nc(N4CCC(C(F)(F)F)CC4)ncc3Cl)ccc21 [Example 35g, 5-((5-chloro-2-(4-(trifluoromethyl)piperidin-1-yl)pyrimidin-4-yl)amino)-3-(3-hydroxy-3-methylbutyl)-1-methyl-1,3-dihydro-2H-benzo[d]imidazol-2-one] | 2240 | 6.12 |  |
| C[C@@H]1CN(c2ncc(Cl)c(Nc3ccc4c(c3)n(CCC(C)(C)O)c(=O)n4C)n2)C[C@H](C)N1C [Example 35l, 5-((5-chloro-2-((3S,5R)-3,4,5-trimethylpiperazin-1-yl)pyrimidin-4-yl)amino)-3-(3-hydroxy-3-methylbutyl)-1-methyl-1,3-dihydro-2H-benzo[d]imidazol-2-one] | 1510 | 6.76 |  |
| Cc1cc(C)n(-c2cc(Nc3ccc4c(c3)n(CCC(C)(C)O)c(=O)n4C)c(Cl)cn2)n1 [Example 30a, 5-((5-chloro-2-(3,5-dimethyl-1H-pyrazol-1-yl)pyridin-4-yl)amino)-3-(3-hydroxy-3-methylbutyl)-1-methyl-1,3-dihydro-2H-benzo[d]imidazol-2-one] | 3090 | 6.09 |  |
| COCC(C)(O)CCn1c(=O)n(C)c2ccc(Nc3nc(N4CCC(C(=O)N(C)C)CC4)ncc3Cl)cc21 (stereo not drawn) [Example 15i] | 2190 | 6.75 |  |
